Assay results taken from patent US11446276B2, “Extreme low dose THC as a therapeutic and prophylactic agent for Alzheimer's disease” (University of South Florida, priority 2015, dated 2022).
“Also recorded” adds a separate entry of the source.

Legend:
[1] = tested on: Aβ40 in N2a/AβPPswe cells; assay: Aβ40 ELISA of N2a/AβPPswe cells treated with THC or caffeine; format: cell-based, human; details: for Aβ40 levels versus control: THC 0.25-2500 nM or caffeine 0.625-10 μM; for Percentage of decreased Aβ40: THC 2.5 μg/mL compared with the control; for Aβ40 (pg/mL) in THC-treated cells: THC 2.5 μg/mL, N2a/AβPPswe cells
[2] = target: Aβ peptide (Homo sapiens, UniProt P05067); assay: Western blot of aggregated Aβ peptide / Aβ monomer; format: biochemical; details: 100 nM, 10 nM, 1 nM THC; FIGS. 4A, 4B
Sequence of Aβ peptide (P05067 672-711 limits assumed): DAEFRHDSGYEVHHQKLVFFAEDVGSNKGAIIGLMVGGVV
Protocol: FIG. 4A is a western blot showing aggregated Aβ peptide with and without THC treatment.
FIG. 4B is a graph showing the relative quantity of Aβ monomer in the anti-aggregation study described in FIG. 4A. Cells were untreated for the aggregation control or treated with and 100 nM THC, 10 nM THC, and 1 nM THC.
In untreated samples, Aβ peptide increased in intensity for the first 20 minutes, followed by a plateauing of fluorescence at around 30 minutes, at which time the intensity remained constant for the duration of the study. […] Therefore, THC's direct interaction with the Aβ peptide will not dampen an immune response to clear the Aβ peptide. Further analysis with western blot was performed measuring the anti-aggregation properties of THC with Aβ peptide.

[3] = tested on: GSK-3β; assay: Western blot of GSK-3β in N2a/AβPPswe cells; format: cell-based
Protocol: Next, the effects of THC on amyloid protein processing were analyzed by testing total GSK-30 and phosphorylated GSK-3β (pGSK-3β) levels. β-actin, a housekeeping gene, was used as a control to indicate that GSK-3β was expressed at a constant rate and that the changes in intensity were not related to the change in expression amount.
The cellular effects of THC were next analyzed. As Aβ processing is mediated by GSK-3β, protein levels were tested. N2a/AβPPswe cells were treated with 2.5 nM or 0.25 nM of THC, as provided in Example 1, and N2a/AβPPswe cell lysate were collected, quantified, and aliquoted.
N2a/AβPPswe cells were cultured as provided above and Δ9-THC added at 0.25 nM and 2.5 nM, as provided in Example 1. After THC treatment for 48 hours, N2a/AβPPswe cell lysate were collected, quantified, and aliquoted. Using 12% Tris-Glycine gel system (Bio-Rad Laboratories, Inc., Hercules, Calif.), protein were separated by electrophoresis and semi-dry transferred to a polyvinylidene difluoride (PVDF) membrane. GSK-3β (Cat #9315, Cell Signaling Technology, Inc. Danvers, Mass.) and β-actin (Cat #A54441, Sigma Aldrich, Merck KGaA; Darmstadt, Germany) antibodies were used as primary antibody. After adding secondary antibody (Goat-anti-Rabbit-HRP Cat #4050-05, Southern Biotech, part of Thermo Fisher Scientific, Waltham, Mass.; Anti-mouse IgG-HRP Cat #A9044, Sigma Aldrich, Merck KGaA; Darmstadt, Germany), the membranes were exposed using ECL substrate (Pierce). After membrane was developed, film with bands were scanned, followed by analysis of gel-quantification software (QuantityOne, from Bio-rad).
The effects of combining THC with other compounds was analyzed using a combination of THC and melatonin. Cells were treated with 2.5 nM of THC and 10 μM or 1 μM melatonin, using the methods discussed above, and N2a/AβPPswe cell lysate collected, quantified, and aliquoted. […] After membrane was developed, film with bands were scanned, followed by analysis of gel-quantification software (QuantityOne, from Biorad).

[4] = tested on: phosphorylated GSK-3β; assay: Western blot of phosphorylated GSK-3β in N2a/AβPPswe cells; format: cell-based; details: 25 nM, 2.5 nM, 0.25 nM THC; 36 hours; FIGS. 5D, 10B
Protocol: Cells were plated in 6 well plate overnight with 25 nM THC, 2.5 nM THC, or 0.25 nM THC added into each designated wells in duplicate. Cells were lysed after 36 hours incubation. Proteins were loaded onto SDS-page gel and then blotted with each antibody after transfer onto PVDF membrane.
Using 12% Tris-Glycine gel system (Bio-rad), proteins were separated by electrophoresis and semi-dry transferred to a PVDF membrane. GSK-3β and β-actin antibodies were used as primary antibody. After adding secondary antibody, the membranes were exposed using ECL substrate (Pierce). After membrane was developed, film with bands were scanned, followed by analysis of gel-quantification software (QuantityOne, from Biorad).

[5] = tested on: Aβ40 in N2a/AβPPswe cells; assay: Aβ40 ELISA after one or two THC administrations 24 hours apart; format: cell-based, human; details: FIG. 9B
Protocol: Studies were conducted on multiple dosings of THC. N2a/AβPPswe cells, as discussed in Example 1, were suspended to 2×10^5/mL, 3 mL plated into each well, and grown in DMEM with 10% fetal bovine serum, 100 U/mL penicillin, 100 μg/mL streptomycin, and 400 μg/mL G418 (Invitrogen), at 37° C. in the presence of 5% CO2. N2a/AβPPswe cells were subcultured using trypsin, and pipetted numerous times to ensure cells were separated into individual cells. Cells were counted, as provided in Example 1, and proper amount of cell medium and fresh medium was added into new flasks according to the ratio of dilution. Pipetting was performed 10 times to homogenize cells, and 3 mL of cells were seeded into medium into each 6 well plate. When one pipette was used up, the cells were mixed in the flask before using them for the next pipette. Compounds were suspended in DMSO, as provided in Example 1.
12 hours after plating, cells were treated with various concentrations of Δ9-THC (T4764-1ML Sigma Aldrich, Merck KGaA; Darmstadt, Germany), with untreated N2a/AβPPswe cells used as a control. Multiple dosing regimens were carried out 24 hours after initial treatment. Treatment was then washed out, i.e. the medium was then removed from the cultures and 3 mL of media containing the treatment compounds were added. […]

[6] = tested on: GSK-3β; details: 10 mg/kg of body weight of THC; mice; cited from earlier work
[7] = in vivo; cited from earlier work
[8] = tested on: CB1 receptor; assay: RT-PCR for CB1 receptor expression level; details: cells treated with low doses of THC

CCCCCc1cc(O)c2c(c1)OC(C)(C)[C@@H]1CCC(C)=C[C@@H]21 [THC, Δ9-tetrahydrocannabinol]
Aβ levels at the lowest dose ([1]; 6 hours, THC 0.25 nM): minor increase | Aβ40 levels versus control ([1]; 6 hours, FIG. 1A): dose-dependent decrease; also recorded: significant reduction | Percentage of decreased Aβ40 ([1]; 6 hr): 9.23% | Aβ40 (pg/mL) in THC-treated cells ([1]; 6 hr): 965.827 pg/mL | Aβ40 levels versus control ([1]; 24 hours, FIG. 1B): dose-dependent decrease; also recorded: exponential drop | Percentage of decreased Aβ40 ([1]; 24 hr): 31.19% | Aβ40 (pg/mL) in THC-treated cells ([1]; 24 hr): 3648.975 pg/mL | Aβ40 levels versus control ([1]; 48 hours, FIG. 1C): dose-dependent decrease; also recorded: significantly differed more | Percentage of decreased Aβ40 ([1]; 48 hr): 51.24% | Aβ40 (pg/mL) in THC-treated cells ([1]; 48 hr): 2894.175 pg/mL | Relative quantity of Aβ monomer [2]: increases monomeric Aβ; also recorded: higher relative % of Aβ monomer | GSK-3β protein levels (ratio to β-actin) ([3]; THC 0.25 nM and 2.5 nM, 48 hours, FIGS. 5A, 5B): dose-dependent decrease; also recorded: decreases the GSK-3β protein levels | GSK-3 levels relative to the control ([3]; lowest level of THC from the tests): about half | Decrease of GSK-3β protein levels over the untreated control ([3]; ultra-low doses of THC, FIGS. 5A, 5B): ≤ 50% | Phosphorylated GSK-3β, THC alone [4]: decreases the phosphorylation of GSK-3β; also recorded: decrease of phosphorylated GSK-3β; also recorded: decreases phosphorylated GSK-3β | Aβ40 (pg/ml) concentrations after one or two administrations ([5]; designated concentrations of THC): decreases Aβ40 | Aβ40 in cells treated twice with THC 24 hours apart versus once ([5]; from 12 μM and higher concentrations): significant decrease in Aβ40 concentration compared to cells treated once; also recorded: even greater reduction in Aβ levels | Phosphorylation of GSK-3β [6]: increased phosphorylation of GSK-3β | Bioavailability [7]: 30% | CB1 receptor expression level (RT-PCR) [8]: no significant upregulation
